From patent US20230192683A1, “FUSED RING COMPOUNDS, PREPARATION METHOD THEREFOR, PHARMACEUTICAL COMPOSITIONS AND USE THEREOF” (priority 2020, published 2023) come the findings set out here.

Structures can show the parent of a compound that is named as a salt. Marks after values point to notes of the source that are not given here.

One data set has as its target T1, human SSTR4 (Homo sapiens, UniProt P31391).
T1 construct: expressed in transfected cells
Nature of the data set: cell-based human SSTR4 cAMP assay (agonist activity). To be noted: SSTR4, EC50 (nM), Flp-In-CHO-SSTR4 stable pool, Forskolin-stimulated cAMP. The protocol:
Purpose of test: A cell-based human SSTR4 cAMP assay was used to determine the agonistic effect of the test compound on an SSTR 4 receptor.
Cell culture and reagent preparation: cell line: Flp-In-CHO-SSTR4 stable pool; complete medium: Ham’s F-12 K + 10% FBS + 1 × penicillin-streptomycin (PS) + 600 µg/ml hygromycin B; cell seeding medium: Ham’s F-12K + 10% FBS; assay buffer: 1 × HBSS + 20 mM HEPES + 0.1%BSA + 500 uM IBMX.
The Flp-In-CHO-SSTR 4 stable pool cell line was cultured in a complete medium at 37° C., 5% CO2 until a confluency of 70% to 90%.
After TrypLE digestion, the cells were resuspended in the seeding medium and seeded in a 384-well cell culture plate (384 PE culture plate), with 7,000 cells per well, and were cultured overnight at 37° C., 5% CO2.
The cell culture plate was taken out, inverted at 200 g at room temperature for 5 s to remove the medium, then quickly filled with 15 µl of an experimental buffer to each experimental well, and centrifuged at 200 g at room temperature for 5 s.
2.5 µl of the 8x compound working solution diluted in step 3 was added to corresponding test wells, which were centrifuged at 200 g for 5 s at room temperature, and incubated at 37° C. for 10 min.
A 4 uM Forskolin working solution (8x) was prepared.
The cell plate was taken out and equilibrated to room temperature, then filled with 2.5 µl of the 8x Forskolin working solution prepared in step 6 to corresponding test wells, followed by RT at 200 g for 5 s, and left to stand at 37° C. for 30 min.
A Eu-cAMP tracer and Uliaght-anti-cAMP were freeze-thawed, the Eu-cAMP tracer was diluted 50-fold with a detection buffer, and the Uliaght-anti-cAMP was dilutd 150-fold.
10 µl of the Eu-cAMP tracer was added to all experimental wells, then 10 µl of the detection buffer was added to NC wells, and 10 µl of the Uliaght-anti-cAMP was added to the remaining experimental wells.
The reaction plate was centrifuged at 200 g for 30 s at room temperature, and after standing at 25° C. for 1 h, data was collected using Envision.
Compound EC50 was calculated using a GraphPad nonlinear fitting formula: […]
X: Compound concentration log value; Y: HTRF ratio
In general terms: cAMP levels reflect the balance of adenylyl cyclase and phosphodiesterase activity.

A short description of data set [1]: metabolic stability in pooled human liver microsomes. As to conditions: pH 7.4. The protocol: (§1) Metabolic degradation of a test compound was analyzed using pooled human liver microsomes and male rat liver microsomes, respectively, at 37° C.
(§2) After pre-incubation at 37° C. for 5 min, NADPH (5 mM, 60 µL) was added to initiate a reaction. A fixed volume of the reaction mixture (30 µL) was sampled into the solution at fixed time points (0, 5, 15, 30, 60 min) to quench the reaction. After centrifugation (4000 rpm, 15 min), the supernatant (100 µL) was mixed with distilled water (100 µL) and then subjected to LC-MS/MS analysis to test the amount of the compound. A half-life was calculated using a first-order reaction kinetic equation (Ct = C0 × e^-ket, T½ = Ln2/ke).
Background: Microsomes from liver hold many membrane-bound enzymes, among them those of drug oxidation.

Data set [2] is described as follows: metabolic stability in male rat liver microsomes. As to conditions: pH 7.4. The protocol:
as §1, §2

The subject of data set [3] is rat CFA pain model. The data set is described as follows: multi-dose oral pharmacodynamic study in rat CFA pain model (Von Frey PWT). In kind it is in vivo. The method, then:
The efficacy of Compound 1a and Compound 14 in the rat CFA pain model was evaluated using a mechanical allodynia method.
SD rats, 72 males, divided into 9 groups, were purchased from Beijing Vital River Laboratory Animal Technology Co., Ltd.
The experimental animals were adaptively reared for 3 to 7 days, and 8 of them were selected as a normal control group, and the other animals were injected with 50 µL of CFA in the center of the left hind paw for modeling. 24 hours after injection, the animals were tested for paw withdrawal threshold (PWT) basal values, and were divided into groups according to the basal values, which were solvent control group, indomethacin group, Compound 1a, 10 mpk group, Compound 1a, 30 mpk group, Compound 1a, 100 mpk group, Compound 14, 3 mpk group, Compound 14, 10 mpk group, and Compound 14, 30 mpk group, with 8 animals in each group. Subsequently, the animals were weighed and administered orally according to Table 6. All the animals were tested for paw withdrawal thresholds (PWT) using Von Frey 1, 2, and 4 hours after administration to further evaluate the efficacy of the compounds of the present invention.

For data set [4], the system named is rat CFA pain model. Nature of the data set: single-dose pharmacodynamic study in rat CFA pain model (Von Frey PWT). In kind it is in vivo. The method, then: Each male SD rat (7-8 weeks old) was injected with 50 microliters of CFA in the center of the left hind paw. A PWT basal value test was conducted 24 hours after modeling, and the drugs were administered after randomization.
There were 8 animals in each group, and the animals were weighed and administered according to Table 4.
For all groups of animals, paw withdrawal thresholds (PWTs) of the animals were tested using Von Frey after 1 h and 3 h of single administration.

T1 sequence (P31391 whole entry): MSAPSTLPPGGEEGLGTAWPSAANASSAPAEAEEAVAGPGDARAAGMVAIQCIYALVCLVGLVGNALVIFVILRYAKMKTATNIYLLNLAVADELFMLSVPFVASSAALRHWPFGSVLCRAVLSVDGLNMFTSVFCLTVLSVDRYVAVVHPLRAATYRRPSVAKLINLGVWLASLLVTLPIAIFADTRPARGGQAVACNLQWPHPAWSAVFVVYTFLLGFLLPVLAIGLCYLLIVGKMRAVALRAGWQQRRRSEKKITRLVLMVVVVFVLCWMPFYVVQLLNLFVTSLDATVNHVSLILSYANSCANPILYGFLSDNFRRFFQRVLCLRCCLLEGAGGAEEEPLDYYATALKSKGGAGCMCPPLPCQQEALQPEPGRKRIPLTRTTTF

Consider `CSc1cccn2c(C(C)(C)NC(=O)C3C4CNCC43C)ncc12` (single isomer, unassigned) [Compound 5-P1, 1-Methyl-N-(2-(8-(Methylthio)Imidazo[1,5-a]Pyridin-3-yl)Propan-2-yl)-3-Azabicyclo[3.1.0]Hexane-6-Carboxamide], for which the response at human SSTR4 was half-maximal at 1.25 nM (EC50).

Compound `CSc1cccn2c(C(C)(C)NC(=O)C3C4CNCC43C)ncc12` (single isomer, unassigned) [Compound 5-P2, 1-methyl-N-(2-(8-(methylthio)imidazo[1,5-a]pyridin-3-yl)propan-2-yl)-3-azabicyclo[3.1.0]hexane-6-carboxamide] registered an EC50 on human SSTR4 of 0.41 nM.

On human SSTR4, `CSc1cccn2c(C(C)(C)NC(=O)[C@H]3[C@@H]4CNC[C@@H]43)ncc12.Cl` [Compound 1, (1R,5S,6R)-N-(2-(8-(Methylthio)Imidazo[1,5-a]Pyridin-3-yl)Prop-2-yl)-3-Azabicyclo[3.1.0]Hexane-6-Carboxamide Hydrochloride] returned a 50% effective concentration (EC50) of 0.15 nM. For the same compound, the half-life at 1 µM in data set [1] (microsomes) and in data set [2] (microsomes) was greater than 3.11 h in each case.

Compound `CC(C)(CSc1ccccc1C(F)(F)F)NC(=O)[C@H]1[C@@H]2CNC[C@@H]21` [Compound 2, (1R,5S,6R)-N-(2-Methyl-1-((2-(Trifluoromethyl)Phenyl)Thio)Prop-2-yl)-3-Azabicyclo[3.1.0]Hexane-6-Carboxamide Formate] returned an EC50 at human SSTR4 of 6.77 nM.

Take `CC(C)(NC(=O)[C@H]1[C@@H]2CNC[C@@H]21)c1ncc2c(SC3CCCC3)cccn12` [Compound 3, (1R,SS,6R)-N(2-(8-(Cyclopentylthio)Imidazo[1,5-a]Pyridin-3-yl)Prop-2-yl)-3-Azabicyclo[3.1.0]Hexane-6-Carboxamide]: the EC50 at human SSTR4 was 10.5 nM.

Take `CC(C)(NC(=O)[C@H]1[C@@H]2CNC[C@@H]21)c1ncc2c(Sc3nccs3)cccn12` [Compound 4, (1R,5S,6R)-N-(2-(8-(Thiazol-2-Ylsulfanyl)Imidazo[1,5-a]Pyridin-3-yl)Prop-2-yl)-3-Azabicyclo[3.1.0]Hexane-6-Carboxamide]: at human SSTR4, the EC50 was 36.7 nM.

On human SSTR4, `CCSc1cccn2c(C(C)(C)NC(=O)[C@H]3[C@@H]4CNC[C@@H]43)ncc12` [Compound 6, (1R,5S,6R)-N-(2-(8-(Ethylthio)Imidazo[1,5-a]Pyridin-3-yl)Prop-2-yl)-3-Azabicyclo[3.1.0]Hexane-6-Carboxamide Hydrochloride] displayed an EC50 of 0.73 nM.

On to `CC(C)Sc1cccn2c(C(C)(C)NC(=O)[C@H]3[C@@H]4CNC[C@@H]43)ncc12` [Compound 7, (1R,5S,6R)-N-(2-(8-(Isopropylthio)Imidazo[1,5-a]Pyridin-3-yl)Prop-2-yl)-3-Azabicyclo[3.1.0]Hexane-6-Carboxamide], for which the EC50 on human SSTR4 amounted to 3.29 nM.

Turning to `CC(C)(NC(=O)[C@H]1[C@@H]2CNC[C@@H]21)c1ncc2c(SCC3CC3)cccn12` [Compound 8, (1R,5S,6R)-N-(2-(8-((Cyclopropylmethyl)Thio)Imidazo[1,5-a]Pyridin-3-yl)Propan-2-yl)-3-Azabicyclo[3.1.0]Hexane-6-Carboxamide], the 50% effective concentration (EC50) at human SSTR4 was determined as 0.5 nM.

`CC(C)(NC(=O)[C@H]1[C@@H]2CNC[C@@H]21)c1ncc2c(SCc3ccccc3)cccn12` [Compound 9, (1R,5S,6R)-N-(2-(8-(Benzylthio)Imidazo[1,5-a]Pyridin-3-yl)Prop-2-yl)-3-Azabicyclo[3.1.0]Hexane-6-Carboxamide] yielded an EC50 on human SSTR4 of 3.42 nM.

For the compound `CC(C)CSc1cccn2c(C(C)(C)NC(=O)[C@H]3[C@@H]4CNC[C@@H]43)ncc12` [Compound 10, (1R,5S,6R)-N-(2-(8-(Isobutylthio)Imidazo[1,5-a]Pyridin-3-yl)Prop-2-yl)-3-Azabicyclo[3.1.0]Hexane-6-Carboxamide], it took 7.89 nM to reach a half-maximal effect at human SSTR4 (EC50).

In turn, `CC(C)(NC(=O)[C@H]1[C@@H]2CNC[C@@H]21)c1ncc2c(SCC3CCC3)cccn12` [Compound 11, (1R,5S,6R)-N-(2-(8-((Cyclobutylmethyl)Thio)Imidazo[1,5-a]Pyridin-3-yl)Propan-2-yl)-3-Azabicyclo[3.1.0]Hexane-6-Carboxamide] returned an EC50 on human SSTR4 of 2.47 nM.

As for `CC(C)(NC(=O)[C@H]1[C@@H]2CNC[C@@H]21)c1ncc2c(SC3CCC3)cccn12` [Compound 12, (1R,5S,6R)-N-(2-(8-(Cyclobutylthio)Imidazo[1,5-a]Pyridin-3-yl)Prop-2-yl)-3-Azabicyclo[3.1.0]Hexane-6-Carboxamide], at human SSTR4, the response was half-maximal at 1.83 nM (EC50).

For `CC(C)(NC(=O)[C@H]1[C@@H]2CNC[C@@H]21)c1ncc2c(SCC3CCCC3)cccn12` [Compound 13, (1R,5S,6R)-N-(2-(8-((Cyclopentylmethyl)Thio)Imidazo[1,5-a]Pyridin-3-yl)Propan-2-yl)-3-Azabicyclo[3.1.0]Hexane-6-Carboxamide], a half-maximal effect on human SSTR4 (EC50) was put at 7.58 nM.

At human SSTR4, `CSc1cccc2c(C(C)(C)NC(=O)[C@H]3[C@@H]4CNC[C@@H]43)n[nH]c12` [Compound 15, (1R,5S,6R)-N-(2-(7-(Methylthio)-1H-Indazol-3-yl)Propan-2-yl)-3-Azabicyclo[3.1.0]Hexane-6-Carboxamide] registered an EC50 of 0.046 nM. For the same compound, the half-life at 1 µM in data set [1] (pooled human liver microsomes) and in data set [2] (rat liver microsomes) was greater than 3.11 h in each case.

As to `CSc1ccccc1C(C)(C)NC(=O)[C@H]1[C@@H]2CNC[C@@H]21` [Compound 16, (1R,5S,6R)-N-(2-(2-(Methylthio)Phenyl)Propan-2-yl)-3-Azabicyclo[3.1.0]Hexane-6-Carboxamide], the EC50 at human SSTR4 was determined as 1.25 nM.

At human SSTR4, `CSc1nc(C(C)(C)NC(=O)[C@H]2[C@@H]3CNC[C@@H]32)n2cccc(C)c12` [Compound 17, (1R,5S,6R)-N-(2-(8-Methyl-1-(Methylthio)Imidazo[1,5-a]Pyridin-3-yl)Propan-2-yl)-3-Azabicyclo[3.1.0]Hexane-6-Carboxamide] had an EC50 of 0.068 nM. The half-life at 1 µM in data set [1] (pooled human liver microsomes) and in data set [2] (rat liver microsomes) was greater than 3.11 h each time.

Consider `COc1ccc2c(c1)c(CC(=O)O)c(C)n2C(=O)c1ccc(Cl)cc1` [Indomethacin, reference compound], for which the “Paw withdrawal threshold (PWT(g)) (average) 0 hours” value in the data set on rat CFA pain model [3] (30 mg/kg oral group, 0 hours) worked out at 3.012 g. In addition, the “inhibition of CFA-induced mechanical allodynia (in words)” value is “significantly inhibited” with rat CFA pain model [3] (30 mg/kg oral, 2 and 4 hours after administration, FIG. 2); “significantly inhibit” with rat CFA pain model [4] (30 mg/kg P.O., 3 hours after administration, FIG. 1). Also, the “Paw withdrawal threshold (PWT(g)) (average) 1 hour” value in the data set with rat CFA pain model [3] (30 mg/kg oral, 1 hour) was determined as 4.461 g. Moreover, the “Paw withdrawal threshold (PWT(g)) (average) 2 hours” value with rat CFA pain model [3] (30 mg/kg oral, 2 hours) is recorded as 7.486 ** g. Besides, in the data set with rat CFA pain model [3] (30 mg/kg oral, 4 hours), the “Paw withdrawal threshold (PWT(g)) (average) 4 hours” value is 6.813 ** g. For the same compound, the “Mechanical allodynia test (PWT (g), mean) Baseline” value with rat CFA pain model [4] (30 mg/kg P.O. group, baseline 24 h after CFA, before administration) turned out to be 3.554 g. Further, the “Mechanical allodynia test (PWT (g), mean) 1 hour” value in the data set on rat CFA pain model [4] (30 mg/kg P.O., 1 hour after single administration) was 4.448 g. Further, the “Mechanical allodynia test (PWT (g), mean) 3 hours” value in the data set on rat CFA pain model [4] (30 mg/kg P.O., 3 hours after single administration) is 10.360 **** #### g.

The EC50 is the concentration that produces a half-maximal response. A higher EC50 goes with a need for much substance. What is called half-life is how long it takes for the measured level to halve. A low value points to fast loss.
